Four molecules from US20230406849A1, “KRAS INHIBITORS FOR TREATMENT OF CANCERS” (TYLIGAND BIOSCIENCE (SHANGHAI) LIMITED, priority 2020, published 2023) can be followed below.

Data set [1] deals with human non-small cell lung cancer cells NCI-H358 with KRas G12C mutation. The data set is described as follows: NCI-H358 cell proliferation, CellTiter-Glo Luminescent Cell Viability Assay. Type of data set: cell-based. Particulars: for inhibition at 1 µM: 1 μM compound, read-out: Inhibition rate % (1 μM). An excerpt:
This assay verified the inhibitory activity of the compounds of the present disclosure on the proliferation of human non-small cell lung cancer cells NCI-H358 with KRas G12C mutation by using Promega's CellTiter-Glo® Luminescent Cell Viability Assay kit.
[Test materials]: NCI-H358 cell line (Cell Resource Center, IBMS, CAMS/PUMC, Item number: 3111C0001CCC000470), 96-well transparent flat-bottomed black-walled cell culture plate (Greiner Bio one, Cat #655096), RPMI-1640 Medium (GE, Cat #SH30809.01), Fetal Bovine Serum FBS (Thermo Fisher, Cat #10099-141), CellTiter-Glo® Luminescent Cell Viability Assay Kit (Promega, Cat #G7573), PBS (Solarbio, Cat #P1020), Trypsin (Thermo Fisher, Cat #25200072), DMSO (Sigma, Cat #D2650), Methyl cellulose (SIGMA, Cat #9004-67-5).
[Experimental procedure]: 180 μL of cell suspension (RPMI1640 solution with 10% FBS and 1% methyl cellulose) was charged to a 96-well cell culture plate at a density of 1500 cells/well. A control group containing no cells, no compounds and only 3D complete medium (RPMI 1640 solution with 1! Methyl cellulose and 10% FBS) (i.e. culture medium control) and a control group containing no compounds but cells (i.e. cell control) were set. AMG510 or the following reference compounds were used as positive controls. The cell plate was placed in a cell incubator overnight. A 10-fold drug solution (RPMI1640 solution with 10% FBS and 1% DMSO) was prepared at a concentration of 10 μM, and 20 μL of this solution was added to each well of the 96-well plate seeded with cells, so that the final concentration of the compounds in each well was 1 μM, and the DMSO concentration […] replicate wells were set up for each compound. The solutions of AMG510 or the following reference compounds were prepared in the same way and added to the positive control wells. The cell plate was placed in a cell incubator and cultured for 120 h. For endpoint detection, the CellTiter-Glo reagent was melted, and the cell plate was moved to room temperature to equilibrate for 30 minutes, added with 100 µL of CellTiter-Glo to each well, and shaken on an orbital shaker for 5 minutes to fully lyse the cells. The plate was kept at room temperature for 20 minutes to stabilize the luminescence signal, and the luminescence value of each well was full wavelength scanned with a multi-functional microplate reader (Molecular Devices, Spectramax M3 microplate reader).
[Test samples] The compounds of Examples 1-39, and reference compound A
[Data Analysis] The following formula was used to calculate the cell inhibition rate under the action of each concentration of the compounds:
Inhibition rate %=[1−(LumDrug to be tested−LumCulture medium control)/(LumCell control−LUMCulture medium control)]×100%
IC50 values were calculated using GraphPad Prism 7.0 software, nonlinear Sigmoidal regression was used to fit the data to obtain a dose-response curve.
Background: ATP-based viability assays read luminescence as a measure of living cells.

Data set [2] is described as follows: Cassette pharmacokinetic experiment in rats (IV). It is filed as in vivo. Particulars: rat, plasma, 1 mg/kg, male SD rats, tail vein IV, 1 mg/mL each compound at 1 mL/kg. An excerpt:
2.1 Pharmacokinetic Properties of Some Compounds of the Present Disclosure Evaluated by Cassette Pharmacokinetic Experiments in Rats.
[Test materials]: Male SD rats, age: 6-8 weeks, body weight 220-250 g, purchased from Zhaoyan (Suzhou) New Drug Research Center Co., Ltd.; Tolbutamide (Aladdin, Cat #H1401054); Sulfobutyl-(Captisol, Shandong Binzhou Zhiyuan Biological Technology Co., Ltd, Cat #20191013); Propylene glycol (15)-stearate (Solutol, Meilun Bio, Cat #50206A); DMSO (Vetec Company, Cat #WXBD0293V); acetonitrile (Sigma-Aldrich, Cat #WXBD1744V); Methanol (Sigma-Aldrich, Cat #WXBD2831V).
[Experimental procedure]: The compound combination was prepared in a solvent of 5% DMSO/10% Solutol/85% (20% Captisol), and the final concentration of each compound was 1 mg/mL. The SD rats were treated with the compound preparation in 1 mL/kg by tail vein IV injection, and blood samples were collected at the time points of 5 min, 15 min, 30 min, 1 h, 2 h, 4 h, 8 h, and 24 h via external jugular vein puncture, centrifuged at low temperature for 20 minutes to collect plasma samples, which were stored at −80° C. until analysis.
[Sample analysis]: Establishing LC-MS/MS compound analysis method
Standard curve preparation: 20 μL of lmg/mL DMSO stock solution for each compound was aspirated and transferred to […] of 50% methanol working solution, and the resulting solution was serially diluted to obtain a standard curve working solution with concentrations of 20000, 10000, 5000, 1000, 500, 100, 50, 20 and […]. Then 5 µL of this standard curve working solution was mixed with 45 μL rat blank plasma to give a standard curve with concentrations of 2000, 1000, 500, 100, 50, 10, 2 and 1 ng/mL for quantification of unknown samples.
Sample pretreatment: 50 μL of unknown plasma sample or standard curve sample was mixed with 250 μL of acetonitrile containing internal standard as a precipitant. The plasma protein was precipitated, extracted for test compounds, and centrifuged at low temperature for 20 minutes. The supernatant was taken, mixed with 0.1% formic acid aqueous solution, and 5 μL of the resulting solution was aspirated for blood concentration analysis.
[Data processing]: A standard curve was plotted using mass spectrometry software, to quantify unknown samples, and pharmacokinetic parameters are calculated by Winnonlin 8.2 using the drug concentration of unknown samples at each time point.

The test system of data set [3] is human non-small cell lung cancer NCI-H358 xenograft. The data set is described as follows: Antitumor activity in NCI-H358 xenograft mouse model. Type of data set: in vivo, NPSG mice. Particulars: NPSG mice, gavage once daily 10 mg/kg, day 14. The method, then: Tumor growth inhibitory activity of the compounds of the present disclosure was evaluated and verified in a human non-small cell lung cancer NCI-H358 xenograft mouse model.
[Test materials]: NCI-H358 cell line carrying KRAS G12C mutation, provided by KYinno Biotechnology Co., Ltd. (from ATCC, Cat #CRL-5807). NPSG mice, female, provided by Beijing Phenotek Biotechnologies Inc.
[Experimental procedure]: 5×10^6 NCI-H358 cells (containing 50% Matrigel) were inoculated subcutaneously on the right flank of 6-8 weeks old female NPSG mice, with the inoculation volume of 0.1 mL. When the average tumor size reached 160-220 mm^3, the mice were grouped randomly according to tumor size and body weight, upon which the mice were treated with compounds on the same day designated as Day 0. The mice were gavage administrated once daily at 10 mg/kg or solvent control (50 mM citrate buffer containing 10% cyclodextrin, pH5.0). Tumor volume and body weight were measured twice a week during the study. The tumor volume was calculated by the formula V=D×d×d/2, wherein D and d refer to the long and short diameter of the tumor respectively.
In addition, using the same materials and procedures as above, the tumor inhibition activity of Example 9 at different doses in the above-mentioned non-small cell lung cancer mouse model and its effect on body weight were also investigated.

Where two headings read alike, the source gives them in different places.

By inhibition is commonly meant the share of the control response that was lost under treatment. As usually defined, the IC50 is the concentration at which inhibition is half-maximal. A word on the AUC(0-t): it is the area under the concentration-time curve up to a stated or last time point. In general, clearance refers to a measure of how efficiently the substance is removed, as volume per time. The half-life is the time needed for the level to fall by half in the phase considered. Turning to `C=CC(=O)N1CCN(c2c(C#N)c(-c3cccc4c3CCN(C)C4)nc3c(F)c(-c4ccc(F)c5sc(N)nc45)c(Cl)cc23)CC1` [Example 10, 4-(4-Acryloylpiperazin-1-yl)-7-(2-amino-7-fluorobenzo[d]thiazol-4-yl)-6-chloro-8-fluoro-2-(2-methyl-1,2,3,4-tetrahydroisoquinolin-5-yl)quinoline-3-carbonitrile], the inhibition at 1 µM in data set [1] (120 h) came out at 96.1%. Besides, the IC50 in data set [1] (120 h, read-out: IC50) came to 18 nM. The IC50 in data set [1] (read-out: IC50 value) is less than 20 nM. Besides, in data set [2], the area under the curve AUC(0-t) worked out at 592 ng·h/mL, the clearance is 27.4 mL/min/kg and the half-life was 2.66 h.
`C=CC(=O)N1CCN(c2c(C#N)c(O[C@@H]3CN(C)C[C@H]3OC)nc3c(F)c(-c4ccc(F)c5sc(N)nc45)c(Cl)cc23)CC1` [Example 2, 4-(4-Acryloylpiperazin-1-yl)-7-(2-amino-7-fluorobenzo[d]thiazol-4-yl)-6-chloro-8-fluoro-2-(((3R,4R)-4-methoxy-1-methylpyrrolidin-3-yl)oxy)quinoline-3-carbonitrile]: in data set [1] (120 h), the inhibition at 1 µM amounted to 97.6%. In addition, in data set [1] (120 h, read-out: IC50), the IC50 came to 3 nM. The IC50 in data set [1] (read-out: IC50 value) is less than 20 nM. In data set [3], the “TGI(%)” value was found to be 69% and the “Tumor volume (mm^3) (day 14)” value is recorded as 497.3 mm^3.
For the molecule `C=CC(=O)N1CCN(c2c(C#N)c(O[C@@H]3CN(C)C[C@H]3OC)nc3c(F)c(-c4ccc(F)c5sc(N)nc45)c(Cl)cc23)C[C@H]1C` [Example 1, 4-((R)-4-acryloyl-3-methylpiperazin-1-yl)-7-(2-amino-7-fluorobenzo[d]thiazol-4-yl)-6-chloro-8-fluoro-2-(((3R,4R)-4-methoxy-1-methylpyrrolidin-3-yl)oxy)quinoline-3-carbonitrile], the inhibition at 1 µM in data set [1] (120 h) was found to be 94.7%. For the same molecule, in data set [1] (120 h, read-out: IC50), the IC50 amounted to 15 nM. Further, in data set [1] (read-out: IC50 value), the concentration for half-maximal inhibition (IC50) was less than 20 nM. Moreover, in data set [2], the exposure AUC(0-t) came to 657 ng·h/mL, the clearance is 20.9 mL/min/kg and the half-life is 2.87 h. In addition, in data set [3], the “TGI(%)” value is 71% and the “Tumor volume (mm^3) (day 14)” value is 478.4 mm^3.
As for `C=CC(=O)N1CCN(c2c(C#N)c(-c3cn(C)nc3C)nc3c(F)c(-c4ccc(F)c5sc(N)nc45)c(Cl)cc23)CC1` [Example 15, 4-(4-Acryloylpiperazin-1-yl)-7-(2-amino-7-fluorobenzo[d]thiazol-4-yl)-6-chloro-2-(1,3-dimethyl-1H-pyrazol-4-yl)-8-fluoroquinoline-3-carbonitrile], in data set [2], the AUC(0-t) is 717 ng·h/mL, the clearance was 23.3 mL/min/kg and the half-life was 1.03 h.
